# Measurements taken from publication PMC2610413 (Bioorganic & medicinal chemistry letters, 2008).
# Experiments:
# Blk = Blk (Homo sapiens, UniProt P51451); assay: Biochemical enzymatic kinase assay, Blk
# [1] = cited from earlier work
# [2] = test system: Tel-tyrosine kinase (Blk) transformed Ba/F3 cells; assay: Cytotoxicity assay, Tel-Blk transformed Ba/F3 cells; settings: cellular assay
# [3] = target: Tel-wild-type Bmx transformed Ba/F3 cells (Homo sapiens, UniProt P51813); assay: Cytotoxicity assay, Tel-wild-type Bmx transformed Ba/F3 cells; type: cell-based; settings: cellular assay
# Bmx kinase domain = Bmx kinase domain (Homo sapiens, UniProt P51813); assay: Mass spectrometry of covalent modification of recombinant Bmx kinase domain; type: binding
# Bmx = target: T1, Bmx (Homo sapiens, UniProt P51813); assay: Biochemical enzymatic kinase assay, Bmx
# T1 sequence (P51813 1-675): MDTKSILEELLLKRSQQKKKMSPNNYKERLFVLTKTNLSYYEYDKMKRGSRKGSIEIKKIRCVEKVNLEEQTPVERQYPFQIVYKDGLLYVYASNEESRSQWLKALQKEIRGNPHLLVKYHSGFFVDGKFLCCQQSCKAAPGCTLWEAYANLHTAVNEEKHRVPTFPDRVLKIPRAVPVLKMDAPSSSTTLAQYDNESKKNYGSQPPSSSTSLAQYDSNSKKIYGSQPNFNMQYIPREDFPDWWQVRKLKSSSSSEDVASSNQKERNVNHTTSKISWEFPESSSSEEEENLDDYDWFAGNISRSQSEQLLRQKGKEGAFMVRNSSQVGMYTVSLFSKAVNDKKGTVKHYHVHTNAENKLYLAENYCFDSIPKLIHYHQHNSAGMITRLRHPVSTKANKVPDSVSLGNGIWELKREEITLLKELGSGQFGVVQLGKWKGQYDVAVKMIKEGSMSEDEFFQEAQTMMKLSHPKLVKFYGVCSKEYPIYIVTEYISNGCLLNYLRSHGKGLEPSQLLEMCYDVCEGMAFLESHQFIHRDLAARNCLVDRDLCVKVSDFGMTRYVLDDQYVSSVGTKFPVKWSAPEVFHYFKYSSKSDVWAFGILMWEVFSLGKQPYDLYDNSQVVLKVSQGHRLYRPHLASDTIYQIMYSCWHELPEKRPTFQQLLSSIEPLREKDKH
# EGFR (T790M) = settings: cited from earlier work
# full-length Flag-Bmx = target: T2, full-length Flag-Bmx (Homo sapiens, UniProt P51813); settings: 10 μM; immunoprecipitated Flag-Bmx pre-incubated with drug at 4°C for 2 hrs
# T2 sequence (P51813 1-675): T1 sequence (P51813 1-675)
# Chain of Tel-wild-type Bmx transformed Ba/F3 cells (P41212 1-336 partner, one chain of several): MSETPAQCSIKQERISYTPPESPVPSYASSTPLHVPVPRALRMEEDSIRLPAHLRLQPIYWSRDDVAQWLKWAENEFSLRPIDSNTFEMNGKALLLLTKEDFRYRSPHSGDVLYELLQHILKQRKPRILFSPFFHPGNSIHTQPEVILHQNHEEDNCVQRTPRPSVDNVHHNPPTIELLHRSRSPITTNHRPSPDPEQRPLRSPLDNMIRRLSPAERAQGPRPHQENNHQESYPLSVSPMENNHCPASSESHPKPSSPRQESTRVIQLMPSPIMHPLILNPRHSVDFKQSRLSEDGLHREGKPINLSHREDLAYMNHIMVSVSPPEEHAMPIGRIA
# Chain of Blk (P51451 whole entry, species assumed): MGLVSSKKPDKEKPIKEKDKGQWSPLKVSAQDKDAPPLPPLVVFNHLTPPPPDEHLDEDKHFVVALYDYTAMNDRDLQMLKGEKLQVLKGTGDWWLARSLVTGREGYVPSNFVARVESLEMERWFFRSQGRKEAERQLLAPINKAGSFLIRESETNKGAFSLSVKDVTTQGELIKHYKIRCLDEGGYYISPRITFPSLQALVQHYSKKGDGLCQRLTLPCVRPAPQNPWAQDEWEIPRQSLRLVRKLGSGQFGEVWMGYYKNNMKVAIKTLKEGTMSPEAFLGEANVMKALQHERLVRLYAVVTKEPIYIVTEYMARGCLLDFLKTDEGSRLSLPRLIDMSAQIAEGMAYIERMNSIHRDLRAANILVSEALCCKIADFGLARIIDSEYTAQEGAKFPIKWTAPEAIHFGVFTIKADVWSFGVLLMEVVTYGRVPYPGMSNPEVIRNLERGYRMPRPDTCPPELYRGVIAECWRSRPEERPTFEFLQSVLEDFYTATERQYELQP
compound,measurement,setting,value
C=CC(=O)Nc1cc2c(Nc3ccc(F)c(Cl)c3)ncnc2cc1OCCCN1CCOCC1 [CI-1033],inhibitory activity against Blk,Blk,potent inhibitory activity
same,toxicity in clinical phase II study,[1],severe toxicity
same,inhibitory activity against Blk,[2],potent inhibitory activity
C=CC(=O)Nc1ccc2ncnc(Nc3cccc(Br)c3)c2c1 [PD168393],inhibitory activity against Bmx,[3],only moderate potency
same,site of modification,"Bmx kinase domain; chymotryptic peptide ISNGCLL, tandem MS",modification of cysteine 496
same,mass increase of Bmx kinase domain after incubation with inhibitor,Bmx kinase domain; consistent with covalent addition of a single inhibitor molecule,369 Da
same,inhibitory activity against Bmx,Bmx,only moderate potency
CCOc1cc2ncc(C#N)c(Nc3ccc(F)c(Cl)c3)c2cc1NC(=O)/C=C/CN(C)C [EKB-569],inhibition of EGFR (T790M),EGFR (T790M),strongly inhibit
C#Cc1cccc(Nc2ncnc3cc(OCCOC)c(OCCOC)cc23)c1 [erlotinib],in vitro autophosphorylation of Bmx (32P incorporation),full-length Flag-Bmx,not affected
